According to ChEMBL document CHEMBL1201862, “PubChem BioAssay data set” (2004):
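Cultured in 96-well plates, cells were exposed to test compound for 48 hours across five concentrations. Here, GI50 denotes the concentration required for 50% inhibition of growth.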 Activity calls are given as the source filed them. No stated cut-off is given here; in the data, active = GI50 up to about 1.1 µM and inactive = higher.

Assays:
Assay in all cases: NCI anticancer screen, dose series, 48 h
[1] = tested on: MOLT-4
[2] = tested on: UO-31
[3] = tested on: NCI-H226
[4] = tested on: HOP-62
[5] = tested on: PC-3
[6] = tested on: NCI-H460
[7] = tested on: NCI-H23
[8] = tested on: LOX IMVI
[9] = tested on: SW-620
[10] = tested on: TK-10
[11] = tested on: OVCAR-5
[12] = tested on: SNB-75
[13] = tested on: OVCAR-3
[14] = tested on: SF-539
[15] = tested on: MDA-MB-231
[16] = tested on: UACC-257
[17] = tested on: UACC-62
[18] = tested on: 786-0
[19] = tested on: RPMI-8226
[20] = tested on: CAKI-1

Measured: GI50

COc1cc(O)c2c(=O)c3c(C)cccc3n(C)c2c1
inactive: [1] > 10 µM | [2] > 10 µM | [3] > 10 µM | [4] > 10 µM | [5] > 10 µM | [6] > 10 µM | [7] > 10 µM | [8] > 10 µM | [9] > 10 µM | [10] > 10 µM | [11] > 10 µM | [12] > 10 µM | [13] > 10 µM | [14] > 10 µM | [15] > 10 µM | [16] > 10 µM | [17] > 10 µM | [18] > 10 µM | [19] > 10 µM | [20] > 10 µM

NC(CSC1(c2ccc(Cl)cc2)c2ccccc2-c2ccccc21)C(=O)O (stereo not given)
inactive: [1] 20 µM | [2] 28.7 µM | [3] 27.2 µM | [4] 18.7 µM | [5] 18.3 µM | [6] 18.1 µM | [7] 19.1 µM | [8] 16.7 µM | [9] 42.6 µM | [10] 24.8 µM | [11] 30.3 µM | [12] 22.2 µM | [13] 17.4 µM | [14] 20.9 µM | [15] 18 µM | [16] 15.9 µM | [17] 15.4 µM | [18] 20.8 µM | [19] 12.3 µM | [20] 33.5 µM

CC(C)(C)OC(=O)NC(Cc1c[nH]cn1)C(=O)N1CCCC1C(N)=O (stereo not given)
inactive: [1] > 100 µM | [2] > 100 µM | [3] 33.1 µM | [4] > 100 µM | [5] > 100 µM | [6] > 100 µM | [7] > 100 µM | [8] > 100 µM | [9] > 100 µM | [10] > 100 µM | [11] > 100 µM | [12] > 100 µM | [13] > 100 µM | [14] > 100 µM | [15] > 100 µM | [16] > 100 µM | [17] > 100 µM | [18] > 100 µM | [19] > 100 µM | [20] > 100 µM

CCN(CC)CCCn1c(=O)c2cccnc2n2c3c(=O)n(C)c(=O)n(C)c3nc12
inactive: [1] > 100 µM | [2] > 100 µM | [3] > 100 µM | [4] > 100 µM | [5] > 100 µM | [6] 84.7 µM | [7] > 100 µM | [8] > 100 µM | [9] > 100 µM | [10] > 100 µM | [11] > 100 µM | [12] > 100 µM | [13] > 100 µM | [14] > 100 µM | [15] > 100 µM | [16] > 100 µM | [17] > 100 µM | [18] > 100 µM | [19] > 100 µM | [20] > 100 µM

O=P(c1ccccc1)(c1ccccc1)N1O[C@@H](c2ccccc2)C=C[C@H]1c1ccccc1
inactive: [1] 5.32 µM | [2] 5.13 µM | [3] 11.9 µM | [4] 13.1 µM | [5] 2.96 µM | [6] 5.53 µM | [7] 10.8 µM | [8] 7.19 µM | [9] 12.9 µM | [10] 14 µM | [11] 16 µM | [12] 13.3 µM | [13] 11.6 µM | [14] 16.2 µM | [15] 8.24 µM | [16] 11.9 µM | [17] 6.17 µM | [18] 10.4 µM | [19] 5.79 µM | [20] 5.66 µM

CCCC[C@H]1C(=O)O[C@H](C)[C@H](NC(=O)c2cccc(NC=O)c2OC)C(=O)O[C@@H](C)[C@@H]1OC(=O)C(C)CC.CCCC[C@H]1C(=O)O[C@H](C)[C@H](NC(=O)c2cccc(NC=O)c2OC)C(=O)O[C@@H](C)[C@@H]1OC(=O)CC(C)C (stereo not given in full)
inactive: [1] 11.2 µM | [2] 14.8 µM | [3] 12.2 µM | [4] 17.8 µM | [5] 9.42 µM | [6] 5.35 µM | [7] 7.36 µM | [8] 10.3 µM | [9] 20.3 µM | [10] 12.9 µM | [11] 22.2 µM | [12] 8.02 µM | [13] 10.2 µM | [14] 15.8 µM | [15] 12.1 µM | [16] 12.1 µM | [17] 7.14 µM | [18] 12.1 µM | [19] 10.2 µM | [20] 7.87 µM

O=C1CCCC2=C1CC1=C(CCCC1=O)N2c1ccc(Cl)cc1
inactive: [1] 94.6 µM | [2] > 100 µM | [3] > 100 µM | [4] > 100 µM | [5] > 100 µM | [6] > 100 µM | [7] > 100 µM | [8] > 100 µM | [9] > 100 µM | [10] > 100 µM | [11] > 100 µM | [12] > 100 µM | [13] > 100 µM | [14] > 100 µM | [15] > 100 µM | [16] > 100 µM | [17] > 100 µM | [18] > 100 µM | [19] > 100 µM | [20] > 100 µM
